In patent US8133917B2, “Pterostilbene as an agonist for the peroxisome proliferator-activated receptor alpha isoform” (The United States of America as represented by the …, priority 2004, dated 2012):

What was measured:
PPARα = biological target: T1, PPARα (Rattus norvegicus, UniProt P37230); test: Activation of PPARα in H4IIEC3 cells transfected with PPRE-AB-luciferase reporter gene; format: cell-based
T1 construct: endogenous in cells; host or cells: H4IIEC3 rat hepatoma cells
T1 sequence (P37230 1-468): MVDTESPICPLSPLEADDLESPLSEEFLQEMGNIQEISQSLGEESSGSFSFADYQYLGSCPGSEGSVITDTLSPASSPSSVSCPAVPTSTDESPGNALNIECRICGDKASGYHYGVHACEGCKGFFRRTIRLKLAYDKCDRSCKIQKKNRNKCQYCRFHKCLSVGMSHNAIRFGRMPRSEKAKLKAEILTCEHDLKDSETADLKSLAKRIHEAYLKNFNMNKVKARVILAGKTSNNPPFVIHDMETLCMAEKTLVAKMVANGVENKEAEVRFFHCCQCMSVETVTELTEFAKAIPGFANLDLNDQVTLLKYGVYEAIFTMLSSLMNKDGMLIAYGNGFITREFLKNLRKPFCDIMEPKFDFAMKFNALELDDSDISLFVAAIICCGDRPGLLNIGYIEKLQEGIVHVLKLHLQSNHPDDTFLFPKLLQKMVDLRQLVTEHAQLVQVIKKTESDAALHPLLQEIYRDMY

[1] = Hamster feeding study: plasma lipoprotein cholesterol, glucose, weights; format: in vivo, golden Syrian hamsters; conditions: hamsters; for plasma LDL cholesterol lower compared to control group / total plasma cholesterol lower compared to control group: 25 mg/kg diet
Protocol: Male golden Syrian hamsters (Charles River, Wilmington, Mass.), initial weight ranging from 34-41 g, were fed a powdered stock diet (Rodent Lab Chow 5001, Purina Mills, St. Louis, Mo.) for 7 days. The animals were placed in individual wire-bottom cages in a room kept at 20-22° C., 60% rh and 12 h light and dark cycle. Following the initial 7 day period, 8-10 animals were randomly assigned from a weight sorted list to each of five test diets (α-cellulose control and test substance). Food intake was measured twice each week and body weights were monitored once a week. After 21 days on the treatment diets, the animals were killed, blood was collected and analyzed for total cholesterol by the cholesterol oxidase method and lipoprotein cholesterol, by size exclusion chromatography, as previously described (German et al. 1996. Nutrition Res. 16: 1239-1249). All animal procedures were approved by the Animal Care and Use Committee, Western Regional Research Center, USDA, Albany, Calif. and conformed to the principles in “Guide for the Care and Use of Laboratory Animals” (Committee on Care and Use of Laboratory Animals 1985). Plasma blood glucose was determined using a blood glucose meter (Fast Glucose Meter-Precision Xtra, MediSense, Bedford, Mass., USA). Diets were prepared by dissolving powdered cholesterol into warmed butterfat, followed by the addition of corn and fish oil. The small amounts of test ingredients were dissolved in about 50 ml of ethanol and added to the stirring dry ingredients. The liquid fat was also added to the dry ingredients while stirring. Differences between treatments were tested by two-tailed t-test assuming equal variance, and were considered significant at p<0.05.

[2] = as above; format: in vivo, golden Syrian hamsters; conditions: hamsters; plant materials at about 10% of total diet; data not shown
H4IIEC3 cells = test: Toxicity to H4IIEC3 cells during the reporter assay; format: cell-based, rat; conditions: 100 and 300 μM

Row | Compound | PPARα activation (luciferase activity) (PPARα; 100 μM, H4IIEC3 cells) | maximal luciferase response compared to control (PPARα; 100 μM, H4IIEC3 cells, 30 hr, n=4) | agonist / activator of PPARα (PPARα; H4IIEC3 cells) | plasma LDL cholesterol lower compared to control group [1] | total plasma cholesterol lower compared to control group [1] | Final Weights: Body wt (AVG) ([1]; 25 ppm in diet, 21 days) | Final Weights: Liver wt (AVG) ([1]; 25 ppm in diet, 21 days) | LDL/HDL (AVG) ([1]; 25 ppm in diet, 21 days) | Liver/Body (AVG) ([1]; 25 ppm in diet, 21 days) | Plasma Lipoprotein Cholesterol HDL (AVG) ([1]; 25 ppm in diet, 21 days) | Plasma Lipoprotein Cholesterol LDL (AVG) ([1]; 25 ppm in diet, 21 days) | Plasma Lipoprotein Cholesterol Total (AVG) ([1]; 25 ppm in diet, 21 days) | Plasma Lipoprotein Cholesterol VLDL (AVG) ([1]; 25 ppm in diet, 21 days) | Plasma glucose (AVG) ([1]; 25 ppm in diet, 21 days) | induction of luciferase activity (PPARα; all the concentrations tested (1, 10, 100, 300 μM)) | lowering of plasma cholesterol levels versus freeze-dried tomato and eggplant materials [2] | toxicity to H4IIEC3 cells (H4IIEC3 cells)
1 | CC(C)(Oc1ccc(C2CC2(Cl)Cl)cc1)C(=O)O (stereo not drawn) [ciprofibrate] | 19460±1466 relative luciferase units | about 5 fold | acts as an agonist of PPARα |  |  |  |  |  |  |  |  |  |  |  |  |  | 
2 | COc1cc(/C=C/c2ccc(O)cc2)cc(OC)c1 [pterostilbene] |  |  |  | 29% | 18% | 110.5 g | 7.9 g | 1.8 | 7.1 | 137.0 mg/dL | 228.1 mg/dL | 447.8 mg/dL | 82.7 mg/dL | 185.1 |  |  | 
3 | COc1ccc(C=Cc2cc(OC)cc(OC)c2)cc1 [resveratrol trimethylether] |  |  |  |  |  |  |  |  |  |  |  |  |  |  | only slightly |  | 
4 | Oc1ccc(C=Cc2cc(O)cc(O)c2)cc1 [resveratrol] |  |  |  | 20% | 14% | 109.5 g | 7.6 g | 2.2 |  | 127.1 mg/dL | 257.4 mg/dL | 468.2 mg/dL | 83.6 mg/dL | 191 |  | more effective than the plant materials | toxic
